ChEMBL document CHEMBL4414586, “Identification of CNS-Penetrant Aryl Sulfonamides as Isoform-Selective NaV1.6 Inhibitors with Efficacy in Mouse Models of Epilepsy” (J Med Chem, 2019)

Assays:
physchem = settings: 1-octanol/PBS, pH 7.4
[1] = Ratio of drug uptake in 129/C57BL/6J mouse brain to plasma at 30 mg/kg, po after 2 hrs by UHPLC/MS/MS analysis; assay type: ADME, organism-based; settings: brain and plasma, read-out: BPR

| SMILES | logD at 1 h (physchem) | Kp at 2 h [1] |
| --- | --- | --- |
| COc1ccc(F)c([C@H](C)Nc2cc(F)c(S(=O)(=O)Nc3cscn3)cc2Cl)c1 | 3.4 | 0.28 |
| C[C@H](Nc1cc(F)c(S(=O)(=O)Nc2cscn2)cc1Cl)c1cc(CN2CCC2)ccc1F | 1.5 |  |
| O=S(=O)(Nc1cscn1)c1cc(Cl)c(NCc2cc(CN3CCC3)ccc2F)cc1F | 1.4 |  |
